Holding throughout (type): cell-based
For assay [1], the system named is D614G S protein pseudotyped lentivirus (spike protein of the SARS-CoV-2 D614G variant). The note with it: read-out: Half inhibition concentration of viral infection (IC50) D614G.
Assay [2] relates to Omicron S protein pseudotyped lentivirus (spike protein of the SARS-CoV-2 Omicron variant). Put plainly: microbe, parasite or virus in culture. The note with it: read-out: Half inhibition concentration of viral infection (IC50) Omicron.
Assay [3] has as its system Delta S protein pseudotyped lentivirus (spike protein of the SARS-CoV-2 Delta variant). The note with it: ACE2-293T cells; virus pretreated with compound 1 hour at 37° C.; 24 hours infection; mean ± SD (n = 3); read-out: Half inhibition concentration of viral infection (IC50) Delta.

Where two headings read alike, the source gives them in different places.

For 4 molecules, IC50 results are on record in patent US12678471B2 (priority 2022, dated 2026).

For the molecule `COc1cc2c3cc1Oc1c(O)c(OC)cc4c1[C@@H](Cc1ccc(O)c(c1)Oc1ccc(cc1)C[C@@H]3N(C)CC2)N(C)CC4` [Obamegine], the IC50 came out at 1.4 ± 0.35 µM in assay [1] and 1.19 ± 0.16 µM in assay [2] (Lentivirus).

Turning to Bersavine, the IC50 stood at 1.24 ± 0.17 µM in assay [1], 2.86 ± 0.13 µM in assay [3] and 1.71 ± 0.34 µM in assay [2].

Turning to Aromoline, the IC50 in assay [3] was 0.47 ± 0.08 µM; in assay [2], 0.86 ± 0.12 µM.

`COc1cc2c3cc1Oc1c(OC)c(OC)cc4c1[C@@H](Cc1ccc(O)c(c1)Oc1ccc(cc1)C[C@@H]3N(C)CC2)N(C)CC4` [Berbamine]: the IC50 in assay [2] (Lentivirus) turned out to be 2.29 ± 0.29 µM.
